Target: human PD-L1 / Human PD-1 (Homo sapiens (Human), UniProt Q9NZQ7)
Experiment: Enzyme-Linked Immunosorbent Assay (ELISA), PD-1/PD-L1 binding
Conditions: Table 2; plate-coated human PD-L1, biotinylated human PD-1; read-out: ELISA IC50
Summary of the method: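 Human PD-L1 coated at 1 μg/mL overnight at 4° C; samples diluted 1:5 and incubated with human PD-1 and biotin (0.3 μg/mL) for 1 h at 37° C. Bound PD-1 detected with streptavidin-HRP and TMB (20 min, 37° C), acid-stopped, absorbance at 450 nm.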

human PD-L1 / Human PD-1, sequence (Q9NZQ7 19-239): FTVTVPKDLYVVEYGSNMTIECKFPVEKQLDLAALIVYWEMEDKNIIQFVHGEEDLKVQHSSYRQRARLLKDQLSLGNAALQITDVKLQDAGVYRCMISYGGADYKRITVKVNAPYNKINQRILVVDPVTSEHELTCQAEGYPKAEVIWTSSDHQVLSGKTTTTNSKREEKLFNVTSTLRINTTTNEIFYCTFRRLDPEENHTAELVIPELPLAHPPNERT

IC50 [nM]	SMILES
500 to 20000	N#Cc1cncc(COc2cc(O[C@H]3CCc4c(-c5ccccc5F)cccc43)c(Cl)cc2CNC(=O)CCCC(=O)O)c1 [Example 2.173]
100 to 500	COc1ccc(-c2cccc3c2CC[C@@H]3Oc2cc(OCc3cncc(C#N)c3)c(CN[C@@H](CO)C(=O)O)cc2Cl)cc1C [Example 2.023]
100 to 500	N#CCCCCOc1cc(O[C@H]2CCc3c(-c4ccccc4F)cccc32)c(Cl)cc1CN1CCC(O)CC1 [Example 2.090]
500 to 20000	CCOc1cc(O[C@H]2CCc3c(-c4ccccc4F)cccc32)c(Cl)cc1CN1CCC(O)CC1 [Example 2.061]
< 100	Cc1cccc(-c2cccc3c2CC[C@@H]3Oc2cc(OCc3cncc(C#N)c3)c(CN[C@@H](CO)C(=O)O)cc2Cl)c1F [Example 2.046]
100 to 500	CCc1ccccc1-c1cccc2c1CC[C@@H]2Oc1cc(OCc2cncc(C#N)c2)c(CN[C@@H](CO)C(=O)O)cc1Cl [Example 2.035]
100 to 500	N#Cc1cncc(COc2cc(O[C@H]3CCc4c(-c5ccccc5F)cccc43)c(Cl)cc2CN2CC3(CC(O)C3)C2)c1 [Example 2.119]
100 to 500	C[C@@H](O)[C@H](NCc1cc(Cl)c(O[C@H]2CCc3c(-c4ccccc4F)cccc32)cc1-c1cncc(C#N)c1)C(=O)O [Example 2.126]
500 to 20000	N#Cc1cncc(COc2cc(O[C@H]3CCc4c(-c5ccccc5F)cccc43)c(Cl)cc2CN2CCC(O)C(F)(F)C2)c1 (stereo partly drawn) [Example 2.097]
500 to 20000	COc1cccc(F)c1-c1cccc2c1CC[C@@H]2Oc1cc(OCc2cncc(C#N)c2)c(CN2CCC(O)CC2)cc1Cl [Example 2.108]
100 to 500	COc1cccc(-c2cccc3c2CC[C@@H]3Oc2cc(OCc3cncc(C#N)c3)c(CNCC(C)(C)O)cc2Cl)c1F [Example 2.142]
100 to 500	COc1cccc(-c2cccc3c2CCC3Oc2cc(OCc3cncc(C#N)c3)c(CNCCC(N)=O)cc2Cl)c1F (stereo not drawn) [Example 2.080]
100 to 500	C[C@@H](O)[C@H](NCc1cc(Cl)c(O[C@H]2CCc3c(-c4ccccc4F)cccc32)cc1OCc1cccnn1)C(=O)O [Example 2.133]
100 to 500	C[C@H](NCc1cc(Cl)c(O[C@H]2CCc3c(-c4ccc5c(c4Cl)OCCO5)cccc32)cc1OCc1cncc(C#N)c1)C(=O)O [Example 2.163]
500 to 20000	OC1CCN(Cc2cc(Cl)c(O[C@H]3CCc4c(-c5ccccc5F)cccc43)cc2OCc2ccc(C(F)(F)F)nc2)CC1 [Example 2.095]

Same assay, conditions: Table 3; plate-coated human PD-L1, biotinylated human PD-1; read-out: ELISA IC50

IC50 [nM]	SMILES
< 100	N#Cc1cncc(COc2cc(O[C@H]3CCc4c(-c5ccccc5F)cccc43)c(Cl)cc2CNCc2c[nH]cn2)c1 [Example 3.059]
100 to 500	O=C(O)c1cncc(COc2cc(O[C@H]3CCc4c(-c5ccc6c(c5F)OCCO6)cccc43)c(Cl)cc2CN[C@@H](CO)C(=O)O)c1 [Example 3.030]
< 100	N#Cc1cncc(COc2cc(O[C@H]3CCc4c(-c5ccc6c(c5F)OCO6)cccc43)c(Cl)cc2CN[C@@H](CO)C(=O)O)c1 [Example 3.110]
100 to 500	O=C(O)[C@H](CO)NCc1cc(Cl)c(O[C@H]2CCc3c(-c4ccccc4F)cccc32)cc1OCc1cncc(-c2nn[nH]n2)c1 [Example 3.108]
< 100	C[C@@](CO)(NCc1cc(Cl)c(O[C@@H]2CCc3c(-c4ccccc4F)cccc32)cc1OCc1cncc(C#N)c1)C(=O)O [Example 3.119]
< 100	N#Cc1cncc(COc2cc(O[C@H]3CCc4c(-c5ccc6c(c5F)OCCO6)cccc43)c(Cl)cc2CN[C@@H](CO)C(=O)O)c1 [Example 3.008]
< 100	N#Cc1cncc(COc2cc(O[C@H]3CCc4c(-c5ccccc5F)cccc43)c(Cl)cc2CN[C@@H]2CCC[C@H]2O)c1 [Example 3.018]
< 100	N#Cc1cc(C#N)cc(COc2cc(O[C@H]3CCc4c(-c5ccccc5F)cccc43)c(Cl)cc2CN[C@@H](CO)C(=O)O)c1 [Example 3.004]
500 to 20000	N#Cc1cncc(COc2cc(O[C@H]3CCc4c(-c5ccccc5F)cccc43)c(Cl)cc2CNCc2ncc(-c3ccccc3)[nH]2)c1 [Example 3.081]

Reference: US10639284B2, “Immunomodulator compounds” (CHEMOCENTRYX, INC., priority 2016, dated 2020)
